Tests used:
Test in all cases: relative viability vs DMSO control (72 h) (fraction); higher = more viable cells
HT1080 = tested on: HT1080
Method in brief: (§1)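 Sarcoma cell lines were seeded in 384-well plates at densities chosen for 80–90% confluence, then 24 h later given 2.5 µl of serially diluted compound drawn from source plates spanning 10 mM to 0.0002 mM. They were held 72 h at 37 °C, 5% CO2, with 0.1% DMSO vehicle and a 5 µM positive control included. Relative viability was read with ATPLite as percent growth and averaged over up to triplicate wells. Rescaling placed full at 1 and none at 0.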

SW872 = tested on: SW872
Method in brief: as §1

SW1353 = tested on: SW1353
Method in brief: as §1

KHOS-NP = tested on: KHOS-NP
Method in brief: as §1

RD-ES = tested on: RD-ES
Method in brief: as §1

MES-SA = tested on: MES-SA
Method in brief: as §1

SK-ES-1 = tested on: SK-ES-1
Method in brief: as §1

SW684 = tested on: SW684
Method in brief: as §1

SK-LMS-1 = tested on: SK-LMS-1
Method in brief: as §1

G401 = tested on: G401
Method in brief: as §1

VA-ES-BJ = tested on: VA-ES-BJ
Method in brief: as §1

RD = tested on: RD
Method in brief: as §1

COC(=O)c1ccc2c(c1)NC(=O)/C2=C(\Nc1ccc(N(C)C(=O)CN2CCN(C)CC2)cc1)c1ccccc1 [Nintedanib]
Settings | relative viability
G401, 0.00017 µM | 1
G401, 0.00051 µM | 0.99
G401, 0.00152 µM | 0.992
G401, 0.00457 µM | 1.03
G401, 0.01372 µM | 0.98
G401, 0.04115 µM | 0.987
G401, 0.1235 µM | 0.977
G401, 0.3704 µM | 0.891
G401, 1.111 µM | 0.721
G401, 3.333 µM | 0.485
G401, 10 µM | 0.0535
HT1080, 0.00017 µM | 1.05
HT1080, 0.00051 µM | 1.08
HT1080, 0.00152 µM | 1.06
HT1080, 0.00457 µM | 1.06
HT1080, 0.01372 µM | 1.069
HT1080, 0.04115 µM | 1.07
HT1080, 0.1235 µM | 1.06
HT1080, 0.3704 µM | 1.06
HT1080, 1.111 µM | 1.07
HT1080, 3.333 µM | 1.01
HT1080, 10 µM | 0.084
KHOS-NP, 0.00017 µM | 1.06
KHOS-NP, 0.00051 µM | 1.06
KHOS-NP, 0.00152 µM | 1.06
KHOS-NP, 0.00457 µM | 1.06
KHOS-NP, 0.01372 µM | 1.06
KHOS-NP, 0.04115 µM | 1.06
KHOS-NP, 0.1235 µM | 1.05
KHOS-NP, 0.3704 µM | 1.04
KHOS-NP, 1.111 µM | 1.037
KHOS-NP, 3.333 µM | 0.982
KHOS-NP, 10 µM | 0.146
MES-SA, 0.00017 µM | 0.933
MES-SA, 0.00051 µM | 0.93
MES-SA, 0.00152 µM | 0.942
MES-SA, 0.00457 µM | 0.928
MES-SA, 0.01372 µM | 0.898
MES-SA, 0.04115 µM | 0.944
MES-SA, 0.1235 µM | 0.934
MES-SA, 0.3704 µM | 0.958
MES-SA, 1.111 µM | 0.92
MES-SA, 3.333 µM | 0.804
MES-SA, 10 µM | 0.583
RD, 0.00017 µM | 1.03
RD, 0.00051 µM | 1.03
RD, 0.00152 µM | 0.989
RD, 0.00457 µM | 1.01
RD, 0.01372 µM | 0.977
RD, 0.04115 µM | 0.97
RD, 0.1235 µM | 0.96
RD, 0.3704 µM | 0.965
RD, 1.111 µM | 0.873
RD, 3.333 µM | 0.777
RD, 10 µM | 0.0216
RD-ES, 0.00017 µM | 0.955
RD-ES, 0.00051 µM | 0.96
RD-ES, 0.00152 µM | 0.944
RD-ES, 0.00457 µM | 0.958
RD-ES, 0.01372 µM | 0.945
RD-ES, 0.04115 µM | 0.927
RD-ES, 0.1235 µM | 0.806
RD-ES, 0.3704 µM | 0.73
RD-ES, 1.111 µM | 0.706
RD-ES, 3.333 µM | 0.667
RD-ES, 10 µM | 0.203
SK-ES-1, 0.00017 µM | 1
SK-ES-1, 0.00051 µM | 0.951
SK-ES-1, 0.00152 µM | 0.945
SK-ES-1, 0.00457 µM | 0.961
SK-ES-1, 0.01372 µM | 1.03
SK-ES-1, 0.04115 µM | 1.03
SK-ES-1, 0.1235 µM | 0.986
SK-ES-1, 0.3704 µM | 0.883
SK-ES-1, 1.111 µM | 0.571
SK-ES-1, 3.333 µM | 0.399
SK-ES-1, 10 µM | 0.0168
SK-LMS-1, 0.00017 µM | 1.16
SK-LMS-1, 0.00051 µM | 1.13
SK-LMS-1, 0.00152 µM | 1.13
SK-LMS-1, 0.00457 µM | 1.09
SK-LMS-1, 0.01372 µM | 1.11
SK-LMS-1, 0.04115 µM | 1.08
SK-LMS-1, 0.1235 µM | 1.073
SK-LMS-1, 0.3704 µM | 1.07
SK-LMS-1, 1.111 µM | 1.03
SK-LMS-1, 3.333 µM | 0.932
SK-LMS-1, 10 µM | 0.145
SW684, 0.00017 µM | 1.09
SW684, 0.00051 µM | 1.11
SW684, 0.00152 µM | 1.15
SW684, 0.00457 µM | 1.12
SW684, 0.01372 µM | 1.13
SW684, 0.04115 µM | 1.17
SW684, 0.1235 µM | 1.13
SW684, 0.3704 µM | 1.11
SW684, 1.111 µM | 1
SW684, 3.333 µM | 0.96
SW684, 10 µM | 0.422
SW872, 0.00017 µM | 1.05
SW872, 0.00051 µM | 1.03
SW872, 0.00152 µM | 1.02
SW872, 0.00457 µM | 1.03
SW872, 0.01372 µM | 1.03
SW872, 0.04115 µM | 1.03
SW872, 0.1235 µM | 1.03
SW872, 0.3704 µM | 1.04
SW872, 1.111 µM | 0.989
SW872, 3.333 µM | 0.963
SW872, 10 µM | 0.809
SW1353, 0.00017 µM | 0.995
SW1353, 0.00051 µM | 1.07
SW1353, 0.00152 µM | 1.02
SW1353, 0.00457 µM | 1.04
SW1353, 0.01372 µM | 1.02
SW1353, 0.04115 µM | 1.01
SW1353, 0.1235 µM | 1.01
SW1353, 0.3704 µM | 0.999
SW1353, 1.111 µM | 0.958
SW1353, 3.333 µM | 0.947
SW1353, 10 µM | 0.57
VA-ES-BJ, 0.00017 µM | 1.04
VA-ES-BJ, 0.00051 µM | 1.06
VA-ES-BJ, 0.00152 µM | 1.04
VA-ES-BJ, 0.00457 µM | 1.06
VA-ES-BJ, 0.01372 µM | 1.05
VA-ES-BJ, 0.04115 µM | 1.045
VA-ES-BJ, 0.1235 µM | 1.05
VA-ES-BJ, 0.3704 µM | 1.03
VA-ES-BJ, 1.111 µM | 0.993
VA-ES-BJ, 3.333 µM | 0.994
VA-ES-BJ, 10 µM | 0.803

— the supplement of paper PMC10883282
